Reference: publication PMC6405930, “Conservation of the Amyloid Interactome Across Diverse Fibrillar Structures” (Scientific Reports, 2019)

Assays:
Ab1 fibrils [1] = test system: T1, Ab1 fibrils; assay: Fibril incubation with CSF, quantitative MS/MS of bound proteins; type: binding, human; details: 4:1 w/w CSF protein:fibril
T1 construct: Synthetic amyloid β peptide 1–40 was purchased from Caslo Aps (Lyngby, Denmark); purchased Caslo Aps (Lyngby, Denmark); host or cells: synthetic peptide
Experimental: (§1) Plasma and CSF solutions were centrifuged (40,000 g, 20 min) to remove any aggregates. The protein concentration was determined using 280 nm absorbance assuming 1 Abs = 1 mg/mL. […] Control samples (without fibril material) were prepared similarly. All samples were incubated at room temperature for one hour under gentle agitation. Fibrils and fibril-bound proteins were pelleted by centrifugation at 17,000 g for 30 minutes. The supernatant (175 μL) was removed and the aggregate was re-suspended in 175 μL PBS and pelleted again before further preparation for gel analysis and spin-filter assisted digest for quantitative MS/MS.
(§2) The fibril-protein pellets were transferred to spin-filters (0.22 μm), washed twice in PBS (100 μL) and once in 1 M NaCl (100 μL). The fibrils and fibril-bound proteins were dissolved by one-hour incubation in 100 μL 6 M guanidinium chloride followed by elution from the spin-filter. The eluted proteins were loaded onto a 3 kDa MWCO filter unit for filter-assisted unfolding, reduction, alkylation, and trypsin digestion. In brief, samples were washed twice in 8 M urea, once in 8 M urea with 50 mM DTT, once in 8 M urea with 50 mM iodoaceteamide, and twice in 8 M Urea. The filter units were dried by centrifugation (14,000 g in 30 minutes) after every addition. Trypsin digestion was carried out with 0.25 μg sequencing grade trypsin from Sigma Aldrich in 50 mM ammonium bicarbonate overnight at 37 °C. The tryptic peptides were collected by centrifugation, acidified with TFA (0.1%) and micro-purified using POROS R2 column material (Applied Biosystems) packed in P200 pipette tips (Sarstedt).
(§3) LC-MS/MS analyses were performed on an EASY-nLC II system (Thermo Fisher Scientific) connected to a TripleTOF 5600+ mass spectrometer (Sciex) equipped with a NanoSpray III source (Sciex) and operated under Analyst TF 1.6.0 control.
(§4) The micro-purified tryptic peptides were dissolved in 0.1% formic acid, injected and trapped on an in-house packed trap column (2 cm × 100 μm I.D) with RP ReproSil-Pur C18-AQ 3 μm resin (Dr. Maisch GmbH). Peptides were eluted from the trap column and separated on a 15 cm analytical column (75 μm i.d.) packed in-house in a pulled emitter with RP ReproSil-Pur C18-AQ 3 μm resin (Dr. Maisch GmbH). Elution from the analytical column was performed with a linear gradient from 5% to 35% phase B (90% acetonitrile with 0.1% formic acid) over 20 min for protein identification and 50 min for quantitative analysis, respectively.
(§5) All samples were analysed three times, yielding nine MS/MS experiments for each fibril for both plasma and CSF. For the area-based extracted ion chromatogram (XIC) quantification, the acquisition method was set up as an information-dependent acquisition (IDA) experiment collecting up to 25 MS/MS spectra in each 1.6 sec cycle using an exclusion window of 6 sec.
(§6) XIC quantification was based on the average ion intensity of the three most abundant peptides for each protein. Only proteins quantified in at least four out of nine MS/MS experiments per fibril were included in the quantification. The total ion scores were visualized after grouping the proteins according to function (Figure S11).
(§7) For each MS/MS experiment, the ion intensities of the individual proteins were normalized to the total ion intensity of that MS/MS experiment to achieve a relative protein composition. The contribution of each protein was averaged over all nine MS/MS experiments (Tables 1 and 2).

FAS4-AD aggregates [2] = test system: T2, FAS4-AD aggregates; assay: as above; type: binding, human; design: key to Identification status of CSF protein bound: FAS4-AD: *: Identified, but not quantified; —: Not identified in any of the samples; details: symbol cells
T2 construct: aggregates of a mutated version of the FAS1-4 domain of TGFBIp
Experimental: as §1, §2, §3, §4, §5, §6, §7

αSN fibrils [3] = biological target: T3, αSN fibrils (Homo sapiens, UniProt P37840); assay: Fibril incubation with plasma, quantitative MS/MS of bound proteins; type: binding; details: 50:1 w/w plasma protein:fibril
Experimental: as §1, §2, §3, §4, §5, §6, §7

αSN fibrils [4] = biological target: T3, αSN fibrils; assay: Fibril incubation with CSF, quantitative MS/MS of bound proteins; type: binding; design: key to Identification status of CSF protein bound: αSN: *: Identified, but not quantified; —: Not identified in any of the samples; details: symbol cells
Experimental: as §1, §2, §3, §4, §5, §6, §7

Ab2 fibrils [5] = test system: T4, Ab2 fibrils; assay: Fibril incubation with plasma, quantitative MS/MS of bound proteins; type: binding, human; details: 50:1 w/w plasma protein:fibril
T4 construct: Two structurally distinct fibrils of the Aβ(1–40) peptide associated with AD
Experimental: as §1, §2, §3, §4, §5, §6, §7

glucagon fibrils [6] = biological target: T5, glucagon fibrils (Homo sapiens, UniProt P01275); assay: Fibril incubation with CSF, quantitative MS/MS of bound proteins; type: binding; details: 4:1 w/w CSF protein:fibril
T5 construct: fibrils of the peptide hormone glucagon
Experimental: as §1, §2, §3, §4, §5, §6, §7

Ab2 fibrils [7] = test system: T4, Ab2 fibrils; assay: as above; type: binding, human; design: key to Identification status of CSF protein bound: Ab2: *: Identified, but not quantified; —: Not identified in any of the samples; details: symbol cells
Experimental: as §1, §2, §3, §4, §5, §6, §7

C-36 fibrils [8] = biological target: T6, C-36 fibrils (Homo sapiens, UniProt P01009); assay: Fibril incubation with plasma, quantitative MS/MS of bound proteins; type: binding; details: 50:1 w/w plasma protein:fibril
T6 construct: the 36 residue C-terminal fragment of α1-antitrypsin (C-36)
Experimental: as §1, §2, §3, §4, §5, §6, §7

C-36 fibrils [9] = biological target: T6, C-36 fibrils; assay: Fibril incubation with CSF, quantitative MS/MS of bound proteins; type: binding; details: 4:1 w/w CSF protein:fibril
Experimental: as §1, §2, §3, §4, §5, §6, §7

Ab1 fibrils [10] = test system: T1, Ab1 fibrils; assay: Fibril incubation with plasma, quantitative MS/MS of bound proteins; type: binding, human; details: 50:1 w/w plasma protein:fibril
Experimental: (§8) Plasma and CSF solutions were centrifuged (40,000 g, 20 min) to remove any aggregates. The protein concentration was determined using 280 nm absorbance assuming 1 Abs = 1 mg/mL. […] Control samples (without fibril material) were prepared similarly. All samples were incubated at room temperature for one hour under gentle agitation. Fibrils and fibril-bound proteins were pelleted by centrifugation at 17,000 g for 30 minutes. The supernatant (175 μL) was removed and the aggregate was re-suspended in 175 μL PBS and pelleted again before further preparation for gel analysis and spin-filter assisted digest for quantitative MS/MS.
as §2, §3, §4, §5, §6, §7

glucagon fibrils [11] = biological target: T5, glucagon fibrils; assay: as above; type: binding; details: 50:1 w/w plasma protein:fibril
Experimental: as §1, §2, §3, §4, §5, §6, §7

FAS4-AD aggregates [12] = test system: T2, FAS4-AD aggregates; assay: as above; type: binding, human; design: key to Identification status of plasma protein bound: FAS4-AD: *: Identified, but not quantified; —: Not identified in any of the samples
Experimental: as §1, §2, §3, §4, §5, §6, §7

[13] = test system: fibril systems (Ab1, Ab2, glucagon, αSN and C-36); assay: Fibril incubation with plasma, quantitative MS/MS, span over the fibril systems; type: binding, human
Experimental: as §8
The fibril-protein pellets were transferred to spin-filters (0.22 μm), washed twice in PBS (100 μL) and once in 1 M NaCl (100 μL). The fibrils and fibril-bound proteins were dissolved by one-hour incubation in 100 μL 6 M guanidinium chloride followed by elution from the spin-filter. […]
as §4, with “Peptides were eluted from the trap column and separated on a 15 cm analytical column (75 μm i.d.) packed in-house in a pulled emitter with RP ReproSil-Pur C18-AQ 3 μm resin (Dr. Maisch GmbH).” left out
as §5, with “sec. […]” for “sec.”
XIC quantification was based on the average ion intensity of the three most abundant peptides for each protein. Only proteins quantified in at least four out of nine MS/MS experiments per fibril were included in the quantification. […]

Ab2 fibrils [14] = test system: T4, Ab2 fibrils; assay: Determination of the binding capacity (dye depletion from supernatant); design: species or system human; details: 2 nmol dye (20 µM) with 10 μg fibril material, one hour
Experimental: (§9) Control samples (without fibril material) were prepared similarly. Fibrils and fibril-bound ligand were pelleted by centrifugation (17,000 g, 30 min) and the supernatant (90 μL) was transferred to a 96 well half-area plate (Corning 3881).

Ab1 fibrils [15] = test system: T1, Ab1 fibrils; assay: as above; design: species or system human; details: 2 nmol dye (20 µM) with 10 μg fibril material, one hour
Experimental: as §9

C-36 fibrils [16] = biological target: T6, C-36 fibrils; assay: as above; details: 2 nmol dye (20 µM) with 10 μg fibril material, one hour
Experimental: as §9

αSN fibrils [17] = biological target: T3, αSN fibrils; assay: as above; details: 2 nmol dye (20 µM) with 10 μg fibril material, one hour
Experimental: as §9

glucagon fibrils [18] = biological target: T5, glucagon fibrils; assay: as above; details: 2 nmol dye (20 µM) with 10 μg fibril material, one hour
Experimental: as §9

[19] = biological target: fibrils of a short Aβ fragment; design: method as in PMID 23878726; details: read-out: dissociation constant; cited from earlier work

T5 sequence (P01275 53-81 limits assumed): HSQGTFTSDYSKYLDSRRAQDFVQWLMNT
T6 sequence (P01009 383-418 limits assumed): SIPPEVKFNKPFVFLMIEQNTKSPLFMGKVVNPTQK

Row | Compound | Relative composition of CSF proteins bound: Ab1 (Ab1 fibrils [1]) | Identification status of CSF protein bound: FAS4-AD (FAS4-AD aggregates [2]) | Relative composition of plasma proteins bound: αSN (αSN fibrils [3]) | Identification status of CSF protein bound: αSN (αSN fibrils [4]) | Relative composition of plasma proteins bound: Ab2 (Ab2 fibrils [5]) | Relative composition of CSF proteins bound: Glucagon (glucagon fibrils [6]) | Identification status of CSF protein bound: Ab2 (Ab2 fibrils [7]) | Relative composition of plasma proteins bound: C-36 (C-36 fibrils [8]) | Relative composition of CSF proteins bound: C-36 (C-36 fibrils [9]) | Relative composition of plasma proteins bound: Ab1 (Ab1 fibrils [10]) | Relative composition of plasma proteins bound: Glucagon (glucagon fibrils [11]) | Relative composition of plasma proteins bound: FAS4-AD (FAS4-AD aggregates [12]; 50:1 w/w plasma protein:fibril) | contribution to the fibril interactomes [13] | Identification status of plasma protein bound: FAS4-AD (FAS4-AD aggregates [12]; symbol cells) | Ligand bound (binding capacity) (Ab2 fibrils [14]) | Ligand bound (binding capacity) (Ab1 fibrils [15]) | Ligand bound (binding capacity) (C-36 fibrils [16]) | Ligand bound (binding capacity) (αSN fibrils [17]) | Ligand bound (binding capacity) (glucagon fibrils [18]) | Kd [19]
1 | Apolipoprotein A-II: plasma/CSF protein bound to fibrils | 1.0 ± 0.3 % of total protein | — | 0.9 ± 0.3 % of total protein | — | 1.2 ± 0.2 % of total protein | 0.6 ± 0.2 % of total protein | * | 1.9 ± 0.5 % of total protein | 0.9 ± 0.1 % of total protein | 1.1 ± 0.2 % of total protein | 6.2 ± 0.6 % of total protein | 1.8 ± 0.2 % of total protein |  |  |  |  |  |  |  | 
2 | Apolipoprotein B-100: plasma protein bound to fibrils |  |  | 0.2 ± 0.1 % of total protein |  | 0.5 ± 0.2 % of total protein |  |  | 0.1 ± 0.0 % of total protein |  | 0.6 ± 0.1 % of total protein | 0.4 ± 0.0 % of total protein |  | 0.4% | * |  |  |  |  |  | 
3 | O=S(=O)(O)c1cc(S(=O)(=O)O)c2c(/N=N/c3ccccc3)c(O)ccc2c1 [Orange-G] |  |  |  |  |  |  |  |  |  |  |  |  |  |  | 4 nmol/mg fibril | 7 nmol/mg fibril | 28 nmol/mg fibril | 6 nmol/mg fibril | 6 nmol/mg fibril | ~50 µM
